In ChEMBL document CHEMBL2375354, “Total synthesis of the marine cyclic depsipeptide viequeamide a” (J Nat Prod, 2013):
Numbered stars: 1 amine (or outer) side, 2 acyl side, 3 side chain; on linkers, the order of the positions; unused ones are H or OH. Bridge positions count the residues as written; N and C are the ends. Square brackets hold non-standard residues; d marks the D form. Peptide text beside a SMILES is read from it. X1 = C#CCCC[C@H](O[*:2])C(C)(C)C(=O)[*:1]; Hmp(2R,3S) = CC[C@H](C)[C@@H](O)C(=O)O; NMeV = CN[C@H](C(=O)O)C(C)C

Columns and labels:
[1] = Cytotoxicity against human H460 cells by SRB assay; assay type: functional, cell-based; conditions: NCI-H460
[2] = Stability of the compound in DMSO by HPLC analysis; assay type: physicochemical
[3] = Cytotoxicity against human KB/VCR cells by SRB assay; assay type: functional, cell-based
[4] = test system: KB; test: Cytotoxicity against human KB cells by SRB assay; assay type: functional, cell-based
[5] = test system: A549; test: Cytotoxicity against human A549 cells by SRB assay; assay type: functional, cell-based

Compound: C#CCCC[C@@H]1OC(=O)[C@H]([C@@H](C)O)NC(=O)[C@H](C(C)C)N(C)C(=O)[C@@H]2CCCN2C(=O)[C@@H]([C@@H](C)CC)OC(=O)[C@H](C(C)C)N(C)C(=O)[C@H](C(C)C)NC(=O)C1(C)C [VIEQUEAMIDE A] (V[NMeV][Hmp(2R,3S)]P[NMeV]T; linker N-C via X1)
- IC50 [1]: < 100 µM
- Stability [2]: Unstable
- IC50 [3]: < 100 µM
- IC50 [4]: < 100 µM
- IC50 [5]: < 100 µM
